Results published in patent US9657018B2, “Antagonists acting at multiple prostaglandin receptors for the treatment of inflammation” (Allergan, Inc., priority 2014, dated 2017).
Counter-ions that a name gives are not always drawn.

Tests used:
Assay type in all cases: cell-based
[1] = target: T1, human prostanoid FP receptor (Homo sapiens, UniProt P43088); assay: FLIPR Ca2+ signaling antagonist assay, FP receptor stable cell line; conditions: human recombinant FP in HEK-293 EBNA cells; standard agonist 17-phenyl-PGF2a; NA = no antagonism or Kb>=10,000 nM
T1 construct: expressed in transfected cells
Description: (§1) The above compounds were tested for PG antagonist activity as follows using human recombinant prostanoid receptor (DP1, EP1-4, FP, IP and TP) stable cell lines:
(§2) In order to measure the response of Gs and Gi coupled prostanoid receptors as a Ca^2+ signal, chimeric G protein cDNAs were used. Stable cell lines over-expressing human prostanoid DP1, EP1-4, FP, IP, and TP receptors were established as follows:
(§3) Briefly, human prostanoid DP1, EP2, and EP4 receptor cDNAs were co-transfected with chimeric Gqs cDNA containing a haemagglutanin (HA) epitope; human prostanoid EP3 receptors were co-transfected with chimeric Gqi-HA; human EP1, FP, IP, and TP receptor cDNAs were expressed with no exogenous G-proteins. Gqs and Gqi chimeric cDNAs (Molecular Devices, Sunnyvale, Calif., U.S.A.), as well as cDNAs of prostanoid receptors, were cloned into a pCEP4 vector with a hygromycin B selection marker. Transfection into HEK-293 EBNA (Epstein-Barr virus nuclear antigen) cells was achieved by the FuGENE 6 transfection Reagent (Roche Applied Science, Indianapolis, Ind., USA). Stable transfectants were selected according to hygromycin resistance. Because Gqs and Gqi contained an HA epitope, G-protein expression was detected by Western blotting analysis using anti-mouse HA monoclonal antibody and horseradish peroxidase (HRP)-conjugated secondary antibody, while functional expression of prostanoid receptors was detected by FLIPR screening (Matias et al., 2004). These stable cell lines were validated using previously published antagonists at 10 μM against serial dilutions of standard agonists by FLIPR functional assays for Ca^2+ Signaling (as described below).
(§4) Ca^2+ signaling studies were performed using a FLIPR TETRA system (Molecular Devices, Sunnyvale, Calif., USA) in the 384-format. This is a high-throughput instrument for cell-based assays to monitor Ca^2+ signaling associated with GPCRs and ion channels. Cells were seeded at a density of 5×10^4 cells/well in BioCoat poly-D-lysine coated, black wall, clear bottom 384-well plates (BD Biosciences, Franklin lakes, NJ, USA) and allowed to attach overnight in an incubator at 37° C. The cells were then washed twice with HBSS-HEPES buffer (Hanks' balanced salt solution without bicarbonate and phenol red, 20 mM HEPES, pH 7.4) using an ELx405 Select CW Microplate Washer (BioTek, Winooski, Vt., USA). After 60 min of dye-loading in the dark using the Ca^2+-sensitive dye Fluo-4AM (Invitrogen, Carlsbad, Calif., USA), at a final concentration of 2×10^−6M, the plates were washed 4 times with HBSS-HEPES buffer to remove excess dye and leaving 50 μl of buffer in each well. The plates were then placed in the FLIPR TETRA instrument and allowed to equilibrate at 37° C. AGN-211377 was added in a 25 μl volume to each well to give final concentrations of 0.1 μl. M, 0.4M, 1 μM, 3 μl. M, 10 μl. M, and 30 μl. M; or 0.067 μM, 0.4M, 0.67 μM, and 1 μM for cells over-expressing TP receptors. After 4.5 minutes, a 7-point serial dilution of the standard agonist for the corresponding receptor, in a 25 μl volume was injected at the final concentrations from 10^−11M to 10^−5M in 10-fold serial dilution increments for cells expressing human recombinant DP1, EP1, EP2, EP3, EP4, FP, and IP receptors. The dose range for the standard agonist for human recombinant TP receptors was from 10^−12M to 10^−6M. HBSS-HEPES buffer was used as the negative control for the standard agonists. Cells were excited with LED (light emitting diode) excitation at 470-495 nm and emission was measured through an emission filter at 515-575 nm. Assay plates were read for 3.5 minutes using the FLIPR^TETRA. The peak increase in fluorescence intensity was recorded for each well. On each plate, negative controls, dose response of positive controls, and co-treatments of antagonist-agonist for each dose were in triplicates. Standard agonists were as follows: DP=BW 245C, EP1-EP4=PGE2, FP=17-phenyl-PGF2a, IP=Cicaprost, and TP=U-46619. […]

[2] = target: T2, human prostanoid DP1 receptor (Homo sapiens, UniProt Q13258); assay: FLIPR Ca2+ signaling antagonist assay, DP1 receptor stable cell line; set-up: key to FLIPR data DP1 (Kb): PAg = partial agonist; Ag = agonist; NA = not active; conditions: human recombinant DP1 + chimeric Gqs in HEK-293 EBNA cells; standard agonist BW 245C; NA = no antagonism or Kb>=10,000 nM
T2 construct: expressed in transfected cells
T2 sequence (Q13258 1-359): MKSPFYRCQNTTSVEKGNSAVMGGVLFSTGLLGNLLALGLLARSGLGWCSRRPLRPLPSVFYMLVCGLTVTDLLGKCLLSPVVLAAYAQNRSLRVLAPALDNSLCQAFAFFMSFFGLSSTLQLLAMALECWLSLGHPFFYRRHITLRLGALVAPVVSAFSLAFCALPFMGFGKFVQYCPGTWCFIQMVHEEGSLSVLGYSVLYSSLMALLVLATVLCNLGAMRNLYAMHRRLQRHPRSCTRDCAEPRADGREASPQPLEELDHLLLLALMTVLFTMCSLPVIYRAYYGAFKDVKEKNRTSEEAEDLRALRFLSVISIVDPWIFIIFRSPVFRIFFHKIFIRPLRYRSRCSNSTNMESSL
Description: as §1, §2, §3, §4

[3] = target: T3, human prostanoid IP receptor (Homo sapiens, UniProt P43119); assay: FLIPR Ca2+ signaling antagonist assay, IP receptor stable cell line; set-up: key to FLIPR data IP (Kb): PAg = partial agonist; Ag = agonist; NA = not active; conditions: human recombinant IP in HEK-293 EBNA cells; standard agonist Cicaprost; NA = no antagonism or Kb>=10,000 nM
T3 construct: expressed in transfected cells
Description: as §1, §2, §3, §4

[4] = target: T4, human prostanoid TP receptor (Homo sapiens, UniProt P21731); assay: FLIPR Ca2+ signaling antagonist assay, TP receptor stable cell line; set-up: key to FLIPR data TP (Kb): PAg = partial agonist; Ag = agonist; NA = not active; conditions: human recombinant TP in HEK-293 EBNA cells; standard agonist U-46619; NA = no antagonism or Kb>=10,000 nM
T4 construct: expressed in transfected cells
T4 sequence (P21731 1-343): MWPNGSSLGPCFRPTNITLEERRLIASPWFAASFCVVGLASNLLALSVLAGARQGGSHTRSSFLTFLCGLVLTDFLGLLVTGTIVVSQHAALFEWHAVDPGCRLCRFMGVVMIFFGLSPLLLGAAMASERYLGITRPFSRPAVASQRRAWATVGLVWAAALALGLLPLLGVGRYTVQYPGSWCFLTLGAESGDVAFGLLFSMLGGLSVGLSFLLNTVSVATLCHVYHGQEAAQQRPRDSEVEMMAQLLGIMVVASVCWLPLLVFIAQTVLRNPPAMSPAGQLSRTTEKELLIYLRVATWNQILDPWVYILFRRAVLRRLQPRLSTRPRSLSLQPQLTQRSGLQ
Description: as §1, §2, §3, §4

T3 sequence (P43119 whole entry): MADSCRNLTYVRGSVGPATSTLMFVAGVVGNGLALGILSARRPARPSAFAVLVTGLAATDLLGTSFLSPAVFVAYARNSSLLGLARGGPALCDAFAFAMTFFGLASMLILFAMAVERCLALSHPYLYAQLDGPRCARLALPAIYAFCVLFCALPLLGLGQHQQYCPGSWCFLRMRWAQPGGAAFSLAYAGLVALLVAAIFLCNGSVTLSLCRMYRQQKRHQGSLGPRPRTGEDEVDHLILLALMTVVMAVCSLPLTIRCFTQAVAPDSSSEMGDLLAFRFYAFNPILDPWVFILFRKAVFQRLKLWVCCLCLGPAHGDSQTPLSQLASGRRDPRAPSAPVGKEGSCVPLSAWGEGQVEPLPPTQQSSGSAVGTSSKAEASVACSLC
T1 sequence (P43088 whole entry): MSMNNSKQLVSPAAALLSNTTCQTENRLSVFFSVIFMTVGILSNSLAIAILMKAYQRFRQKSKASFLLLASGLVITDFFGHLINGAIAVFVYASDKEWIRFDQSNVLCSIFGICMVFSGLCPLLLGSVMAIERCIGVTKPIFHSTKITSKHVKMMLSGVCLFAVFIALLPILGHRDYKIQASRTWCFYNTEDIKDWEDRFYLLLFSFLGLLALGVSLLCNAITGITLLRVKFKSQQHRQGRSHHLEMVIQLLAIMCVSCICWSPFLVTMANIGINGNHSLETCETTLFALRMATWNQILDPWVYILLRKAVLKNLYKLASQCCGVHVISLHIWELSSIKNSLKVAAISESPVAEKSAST

Row | Structure (SMILES) | Kb [1] [µM] | Kb [2] [µM] | Kb [3] [µM] | Kb [4] [µM] | FLIPR data TP (Kb) [4] | FLIPR data IP (Kb) [3] | FLIPR data DP1 (Kb) [2]
1 | CC(C)Cn1ncc2cc(Cl)cc(Cn3cnc4cc(C(=O)O)ccc43)c21 [Compound 50, 1-(5-Chloro-1-isobutyl-1H-indazol-7-ylmethyl)-1H-benzoimidazole-5-carboxylic acid] | > 10 | > 10 | > 10 | 5 |  |  | 
2 | CC(C)Cn1ncc2cc(F)cc(Cn3ncc4cc(C(=O)O)ccc43)c21 [Compound 43, 1-(5-Fluoro-1-isobutyl-1H-indazol-7-ylmethyl)-1H-indazole-5-carboxylic acid] | 0.7 | 1.7 | > 10 | 0.45 |  |  | 
3 | CC(C)Cn1ncc2cc(Cl)cc(Cn3ncc4cc(C(=O)O)cnc43)c21 [Compound 49, 1-(5-Chloro-1-isobutyl-1H-indazol-7-ylmethyl)-1H-pyrazolo[3,4-b]pyridine-5-carboxylic acid] | 1.9 | 3.5 | 8.9 | 0.17 |  |  | 
4 | CC(C)n1ncc2cc(Br)cc(Cn3ncc4cc(C(=O)O)ccc43)c21 [Compound 46, 1-(5-Bromo-1-isopropyl-1H-indazol-7-ylmethyl)-1H-indazole-5-carboxylic acid] | 0.2 | > 10 | > 10 | 1.4 |  |  | 
5 | Cc1nn(Cc2cc(Br)cc3cnn(CC(C)C)c23)c2ccc(C(=O)O)cc12 [Compound 53, 1-(5-Bromo-1-isobutyl-1H-indazol-7-ylmethyl)-3-methyl-1H-indazole-5-carboxylic acid] | 0.07 | 0.64 | > 10 | 1 |  |  | 
6 | CC(C)Cn1ncc2cc(C(F)(F)F)cc(Cn3ncc4cc(C(=O)O)ccc43)c21 [Compound 44, 1-(1-Isobutyl-5-trifluoromethyl-1H-indazol-7-ylmethyl)-1H-indazole-5-carboxylic acid] | 0.15 | 1 |  |  | Ag | PAg | 
7 | CC(C)Cn1ncc2cc(Cl)cc(Cn3cnc4cc(C(=O)O)cnc43)c21 [Compound 51, 3-(5-Chloro-1-isobutyl-1H-indazol-7-ylmethyl)-3H-imidazo[4,5-b]pyridine-6-carboxylic acid] | 4.9 | > 10 | 8 | 0.28 |  |  | 
8 | CCC(CC)Cn1ncc2cc(Br)cc(Cn3ncc4cc(C(=O)O)ccc43)c21 [Compound 47, 1-[5-Bromo-1-(2-ethyl-butyl)-1H-indazol-7-ylmethyl]-1H-indazole-5-carboxylic acid] | 3 | 1.4 | 1 | 0.7 |  |  | 
9 | CC(C)Cn1ncc2cc(Br)cc(Cn3ncc4cc(C(=O)O)ccc43)c21 [Compound 42, 1-(5-Bromo-1-isobutyl-1H-indazol-7-ylmethyl)-1H-indazole-5-carboxylic acid] | 0.04 | 0.59 | > 10 | 0.16 |  |  | 
10 | CC(C)Cn1ncc2cc(Cl)cc(Cn3ncc4cc(C(=O)O)ccc43)c21 [Compound 41, 1-(5-Chloro-1-isobutyl-1H-indazol-7-ylmethyl)-1H-indazole-5-carboxylic acid] | 0.07 | 0.46 | > 10 | 0.04 |  |  | 
11 | CC(C)Cn1ncc2cc(Cl)cc(Cn3ccc4cc(C(=O)O)cnc43)c21 [Compound 52, 1-(5-Chloro-1-isobutyl-1H-indazol-7-ylmethyl)-1H-pyrrolo[2,3-b]pyridine-5-carboxylic acid] | 0.7 |  | 5.5 | 0.02 |  |  | Ag

More lines, now with the values ahead:

Row | Kb [1] [µM] | Kb [2] [µM] | Kb [3] [µM] | Kb [4] [µM] | FLIPR data TP (Kb) [4] | FLIPR data IP (Kb) [3] | FLIPR data DP1 (Kb) [2] | Structure (SMILES)
12 | 0.017 | 1 | 0.9 | 0.3 |  |  |  | CNc1nn(Cc2cc(Cl)cc3cnn(CC(C)C)c23)c2ccc(C(=O)O)cc12 [Compound 70, 1-[(5-Chloro-1-isobutyl-indazol-7-yl)methyl]-3-(methylamino)indazole-5-carboxylic acid]
13 | 3 | > 10 | 8.9 |  | Ag |  |  | CC(C)Cn1ncc2cc(C(F)(F)F)cc(Cn3cnc4cc(C(=O)O)ccc43)c21 [Compound 55, 1-(1-Isobutyl-5-trifluoromethyl-1H-indazol-7-ylmethyl)-1H-benzoimidazole-5-carboxylic acid]
14 | 0.035 | 3.7 | 9.3 | 1.3 |  |  |  | CC(C)Cn1ncc2cc(Cl)cc(Cn3nc(N)c4cc(C(=O)O)ccc43)c21 [Compound 68, 3-Amino-1-[(5-chloro-1-isobutyl-indazol-7-yl)methyl]indazole-5-carboxylic acid]
15 | 0.6 | 4.7 | > 10 | > 10 |  |  |  | CC(C)Cn1ncc2cc(Cl)cc(Cc3ncc4cc(C(=O)O)ccn34)c21 [Compound 61, 3-[(5-Chloro-1-isobutyl-indazol-7-yl)methyl]imidazo[1,5-a]pyridine-7-carboxylic acid]
16 | > 10 | 5.2 | 9 | 0.03 |  |  |  | CC(C)Cn1ncc2cc(OC(F)(F)F)cc(Cn3cnc4cc(C(=O)O)ccc43)c21 [Compound 56, 1-(1-Isobutyl-5-trifluoromethoxy-1H-indazol-7-ylmethyl)-1H-benzoimidazole-5-carboxylic acid]
17 | 0.6 | 0.2 | 9.5 | 1.6 |  |  |  | Cc1nn(Cc2cc(Br)cc3cnn(CC(C)C)c23)c2ncc(C(=O)O)cc12 [Compound 54, 1-(5-Bromo-1-isobutyl-1H-indazol-7-ylmethyl)-3-methyl-1H-pyrazolo[3,4-b]pyridine-5-carboxylic HCl salt]
